In ChEMBL document CHEMBL1201862, “PubChem BioAssay data set” (2004):
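Cells were grown in 96-well plates and exposed to each compound for 48 hours at five concentrations; endpoints were interpolated linearly between bracketing concentrations, or set to the highest concentration if not reached. The concentration for 50% growth inhibition is given as GI50.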 Calls of active or inactive are those of the source. Rule as the data show it: active = GI50 up to about 1.1 µM and inactive = higher.

How the values were obtained:
Assay in all cases: NCI tumour cell line growth inhibition, 48 h
[1] = system: SNB-19
[2] = system: SK-MEL-2
[3] = system: ACHN
[4] = system: CAKI-1
[5] = system: NCI/ADR-RES
[6] = system: HCT-15
[7] = system: DLD-1
[8] = system: DU-145
[9] = system: Hs-578T
[10] = system: SF-295
[11] = system: T47D
[12] = system: SN12C
[13] = system: HOP-92
[14] = system: A498
[15] = system: SW-620
[16] = system: MOLT-4
[17] = system: HT-29
[18] = system: K562
[19] = system: SK-OV-3
[20] = system: SF-539

**Q.** How did the GI50 [1] turn out when `O=C1C(Br)=C(Br)C(=O)c2ccc(=O)ccc21` was run?
**A.** The GI50 was > 100 µM (inactive).

**Q.** What about the GI50 [2] of the same compound?
**A.** Its GI50 is 48.9 µM (inactive).

**Q.** And the GI50 [3]?
**A.** The GI50 was 17.6 µM (inactive).

**Q.** And the GI50 [4]?
**A.** The GI50 was 28.3 µM (inactive).

**Q.** And the GI50 [5]?
**A.** Its GI50 is 20 µM (inactive).

**Q.** And the GI50 [6]?
**A.** Its GI50 is 18.7 µM.

**Q.** What about the GI50 [7] of the same compound?
**A.** The GI50 was 22.3 µM (inactive).

**Q.** What about the GI50 [8] of the same compound?
**A.** Its GI50 is > 100 µM (inactive).

**Q.** What about the GI50 [9] of the same compound?
**A.** Its GI50 is 26.4 µM (inactive).

**Q.** And the GI50 [10]?
**A.** The GI50 was 33.2 µM (inactive).

**Q.** And the GI50 [11]?
**A.** The GI50 was 24.4 µM (inactive).

**Q.** And the GI50 [12]?
**A.** The GI50 was 19.1 µM (inactive).

**Q.** What about the GI50 [13] of the same compound?
**A.** Its GI50 is 18.5 µM (inactive).

**Q.** And the GI50 [14]?
**A.** Its GI50 is > 100 µM (inactive).

**Q.** And the GI50 [15]?
**A.** The GI50 was 20.8 µM (inactive).

**Q.** What about the GI50 [16] of the same compound?
**A.** Its GI50 is 3.36 µM (inactive).

**Q.** And the GI50 [17]?
**A.** Its GI50 is 30.8 µM (inactive).

**Q.** And the GI50 [18]?
**A.** Its GI50 is 30.7 µM (inactive).

**Q.** What about the GI50 [19] of the same compound?
**A.** Its GI50 is > 100 µM (inactive).

**Q.** And the GI50 [20]?
**A.** Its GI50 is 24.7 µM (inactive).

**Q.** What does the source list for `COC(=O)C1CC(C(=O)OC)c2nc3cc(C)ccc3nc21` (stereo not given)?
**A.** GI50 [1]: > 100 µM (inactive); GI50 [2]: > 100 µM (inactive); GI50 [3]: > 100 µM (inactive); GI50 [4]: > 100 µM (inactive); GI50 [6]: > 100 µM; GI50 [7]: > 100 µM (inactive); GI50 [10]: > 100 µM (inactive); GI50 [12]: > 100 µM (inactive); GI50 [13]: > 100 µM (inactive); GI50 [14]: > 100 µM (inactive); GI50 [15]: > 100 µM (inactive); GI50 [16]: > 100 µM (inactive); GI50 [17]: 62.7 µM (inactive); GI50 [18]: > 100 µM (inactive); GI50 [19]: > 100 µM (inactive); GI50 [20]: > 100 µM (inactive)

**Q.** Which GI50 [1] does the source give for `Cc1cccc(N2C(=O)/C(=C/c3ccc(N(CCC#N)CCC#N)cc3C)N=C2c2cc([N+](=O)[O-])ccc2Cl)c1` here?
**A.** The GI50 was > 100 µM (inactive).

**Q.** What about the GI50 [2] of the same compound?
**A.** Its GI50 is > 100 µM (inactive).

**Q.** What about the GI50 [3] of the same compound?
**A.** The GI50 was > 100 µM (inactive).

**Q.** What about the GI50 [4] of the same compound?
**A.** The GI50 was 8.18 µM (inactive).

**Q.** What about the GI50 [6] of the same compound?
**A.** Its GI50 is over 100 µM.

**Q.** What about the GI50 [7] of the same compound?
**A.** Its GI50 is > 100 µM (inactive).

**Q.** And the GI50 [10]?
**A.** Its GI50 is > 100 µM (inactive).

**Q.** What about the GI50 [12] of the same compound?
**A.** Its GI50 is > 100 µM (inactive).

**Q.** And the GI50 [13]?
**A.** Its GI50 is > 100 µM (inactive).

**Q.** What about the GI50 [14] of the same compound?
**A.** Its GI50 is > 100 µM (inactive).

**Q.** And the GI50 [15]?
**A.** The GI50 was > 100 µM (inactive).

**Q.** And the GI50 [16]?
**A.** The GI50 was 46.5 µM (inactive).

**Q.** What about the GI50 [17] of the same compound?
**A.** The GI50 was 45.5 µM (inactive).

**Q.** And the GI50 [18]?
**A.** Its GI50 is 86.1 µM (inactive).

**Q.** And the GI50 [19]?
**A.** Its GI50 is > 100 µM (inactive).

**Q.** What about the GI50 [20] of the same compound?
**A.** Its GI50 is > 100 µM (inactive).

**Q.** How did the GI50 [1] turn out when `COC(=O)C(C(=O)C(=O)Nc1ccc(C)cc1C)c1nc2ccc([N+](=O)[O-])cc2nc1O` (stereo not given) was run?
**A.** The GI50 was > 100 µM (inactive).

**Q.** What about the GI50 [2] of the same compound?
**A.** The GI50 was > 100 µM (inactive).

**Q.** And the GI50 [3]?
**A.** Its GI50 is > 100 µM (inactive).

**Q.** And the GI50 [4]?
**A.** The GI50 was > 100 µM (inactive).

**Q.** And the GI50 [6]?
**A.** The GI50 was over 100 µM.

**Q.** And the GI50 [7]?
**A.** Its GI50 is > 100 µM (inactive).

**Q.** What about the GI50 [10] of the same compound?
**A.** Its GI50 is > 100 µM (inactive).

**Q.** What about the GI50 [12] of the same compound?
**A.** Its GI50 is > 100 µM (inactive).

**Q.** And the GI50 [13]?
**A.** Its GI50 is > 100 µM (inactive).

**Q.** What about the GI50 [14] of the same compound?
**A.** The GI50 was > 100 µM (inactive).

**Q.** What about the GI50 [15] of the same compound?
**A.** The GI50 was > 100 µM (inactive).

**Q.** What about the GI50 [16] of the same compound?
**A.** The GI50 was > 100 µM (inactive).

**Q.** What about the GI50 [17] of the same compound?
**A.** The GI50 was > 100 µM (inactive).

**Q.** And the GI50 [18]?
**A.** The GI50 was 78.7 µM (inactive).

**Q.** And the GI50 [19]?
**A.** The GI50 was > 100 µM (inactive).

**Q.** What about the GI50 [20] of the same compound?
**A.** The GI50 was > 100 µM (inactive).

**Q.** What does the source list for `O=C(/C=C/c1ccc(OCCSCCCCCCCCCCSCCOc2ccc(/C=C/C(=O)c3ccc(Cl)cc3)cc2)cc1)c1ccc(Cl)cc1`?
**A.** GI50 [1]: > 74.3 µM (inactive); GI50 [2]: 61.8 µM (inactive); GI50 [3]: > 88.1 µM (inactive); GI50 [4]: > 83.2 µM (inactive); GI50 [5]: > 100 µM (inactive); GI50 [6]: > 100 µM; GI50 [7]: > 100 µM (inactive); GI50 [8]: > 100 µM (inactive); GI50 [9]: > 78.5 µM (inactive); GI50 [10]: 65.8 µM (inactive); GI50 [11]: > 100 µM (inactive); GI50 [12]: > 100 µM (inactive); GI50 [13]: 47.4 µM (inactive); GI50 [14]: > 100 µM (inactive); GI50 [15]: > 100 µM (inactive); GI50 [16]: > 100 µM (inactive); GI50 [17]: > 100 µM (inactive); GI50 [18]: > 100 µM (inactive); GI50 [19]: 65.5 µM (inactive); GI50 [20]: 45.6 µM (inactive)

**Q.** What does the source list for `Cc1ccc(C(=O)C(C)N)cc1` (stereo not given)?
**A.** GI50 [1]: > 100 µM (inactive); GI50 [2]: > 100 µM (inactive); GI50 [3]: > 100 µM (inactive); GI50 [4]: > 100 µM (inactive); GI50 [6]: > 100 µM; GI50 [7]: > 100 µM (inactive); GI50 [10]: > 100 µM (inactive); GI50 [12]: > 100 µM (inactive); GI50 [13]: > 100 µM (inactive); GI50 [14]: > 100 µM (inactive); GI50 [15]: > 100 µM (inactive); GI50 [16]: > 100 µM (inactive); GI50 [17]: > 100 µM (inactive); GI50 [18]: > 100 µM (inactive); GI50 [19]: > 100 µM (inactive); GI50 [20]: > 100 µM (inactive)

**Q.** Which GI50 [1] does the source give for `COc1cc(C2(C)SCCCS2)cc(OC)c1OC` here?
**A.** The GI50 was > 100 µM (inactive).

**Q.** What about the GI50 [2] of the same compound?
**A.** Its GI50 is > 100 µM (inactive).

**Q.** What about the GI50 [3] of the same compound?
**A.** Its GI50 is > 100 µM (inactive).

**Q.** And the GI50 [4]?
**A.** The GI50 was > 100 µM (inactive).

**Q.** And the GI50 [6]?
**A.** The GI50 was over 100 µM.

**Q.** What about the GI50 [7] of the same compound?
**A.** Its GI50 is > 100 µM (inactive).

**Q.** What about the GI50 [10] of the same compound?
**A.** The GI50 was > 100 µM (inactive).

**Q.** And the GI50 [12]?
**A.** The GI50 was > 100 µM (inactive).

**Q.** And the GI50 [13]?
**A.** The GI50 was > 100 µM (inactive).

**Q.** What about the GI50 [14] of the same compound?
**A.** The GI50 was > 100 µM (inactive).

**Q.** What about the GI50 [15] of the same compound?
**A.** The GI50 was > 100 µM (inactive).

**Q.** And the GI50 [16]?
**A.** Its GI50 is > 100 µM (inactive).

**Q.** And the GI50 [17]?
**A.** Its GI50 is > 100 µM (inactive).

**Q.** And the GI50 [18]?
**A.** Its GI50 is > 100 µM (inactive).

**Q.** What about the GI50 [19] of the same compound?
**A.** Its GI50 is > 100 µM (inactive).

**Q.** And the GI50 [20]?
**A.** Its GI50 is > 100 µM (inactive).
